# In article PMC10967822, “Antimicrobial Indole-3-Carboxamido-Polyamine Conjugates Target Bacterial Membranes and Are Antibiotic Potentiators” (Biomolecules, 2024):
# pIC50: −log10 of the molar value. Several values for one entry are separate records, joined by “and”; a condition that tells them apart may be missing. Identical values can stand only once. Like-named read-outs stand apart in the source and are kept apart here. Marks after values point to notes of the source that are not given here.
# Tests used:
# MRSA ATCC 43300 [1] = tested on: MRSA ATCC 43300; set-up: method as in Cadelis et al. [13]; details: ref Cadelis et al. [13]; cited from earlier work
# E. coli ATCC 25922 [2] = assay: Erythromycin potentiation against E. coli; format: cell-based, Escherichia coli; details: erythromycin at 2 µg/mL (2.7 µM); for Erythro/Ec: concentration required to restore erythromycin activity (combination MIC): mean n = 3
# Source text: (§1) These measurements were independently repeated in triplicate.
# P. aeruginosa ATCC 27853 [3] = details: cited from earlier work
# A. baumannii ATCC 19606 [4] = tested on: A. baumannii ATCC 19606; set-up: method as in Cadelis et al. [13]; details: ref Cadelis et al. [13]; cited from earlier work
# E. coli ATCC 25922 [5] = tested on: E. coli ATCC 25922; set-up: method as in Cadelis et al. [13]; details: ref Cadelis et al. [13]; cited from earlier work
# [6] = tested on: C. neoformans ATCC 208821; set-up: method as in Cadelis et al. [13]; details: ref Cadelis et al. [13]; cited from earlier work
# [7] = tested on: K. pneumoniae ATCC 700603; set-up: method as in Cadelis et al. [13]; details: ref Cadelis et al. [13]; cited from earlier work
# S. aureus ATCC 25923 [8] = details: ref Cadelis et al. [13]; cited from earlier work
# [9] = tested on: HEK293 human embryonic kidney cells; set-up: method as in Cadelis et al. [13]; details: ref Cadelis et al. [13], read-out: Cytotoxicity IC50; cited from earlier work
# P. aeruginosa ATCC 27853 [10] = details: cited from earlier work; remark: listed apart in the source
# human red blood cells [11] = details: cited from earlier work
# C. albicans ATCC 90028 [12] = tested on: C. albicans ATCC 90028; set-up: method as in Cadelis et al. [13]; details: ref Cadelis et al. [13]; cited from earlier work
# [13] = Cytotoxicity assay (resazurin); format: cell-based; details: human, HEK293 cells, mean n = 2
# human red blood cells [14] = assay: Hemolytic assay; format: cell-based; details: 10% hemolytic activity, mean n = 2
# How it was run: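 Washed human erythrocytes (0.5 × 10^8 cells/mL in 0.9% NaCl) were incubated with compounds for 1 h at 37 °C. Haemoglobin release was read as supernatant OD405. HC10 and HC50 came from sigmoidal dose–response fits.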
# [15] = tested on: C. neoformans ATCC 208821; assay: Antifungal MIC (CO-ADD), C. neoformans; format: cell-based; details: Cryptococcus neoformans, ATCC208821, top dose 32 µg/mL
# How it was run: (§2)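 Yeast inocula prepared from YPD-agar colonies grown 3 days at 30 °C, diluted in YNB broth to 2.5 × 10^3 CFU/mL and incubated 36 h at 35 °C without shaking. C. albicans MIC read at OD530; C. neoformans MIC read at OD570–600 after 3 h with 0.006% resazurin.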
# P. aeruginosa ATCC 27853 [16] = assay: Doxycycline potentiation against P. aeruginosa; format: cell-based, Pseudomonas aeruginosa; details: doxycycline at 2 µg/mL (4.5 µM)
# Source text: as §1
# C. albicans ATCC 90028 [17] = assay: Antifungal MIC (CO-ADD), C. albicans; format: cell-based; details: Candida albicans, ATCC90028, top dose 32 µg/mL
# How it was run: as §2
# A. baumannii ATCC 19606 [18] = assay: MIC, broth microdilution (CO-ADD), A. baumannii; format: cell-based, Acinetobacter baumannii; details: Acinetobacter baumannii, ATCC19606, top dose 32 µg/mL
# E. coli ATCC 25922 [19] = assay: MIC, broth dilution, E. coli; format: cell-based, Escherichia coli; details: Escherichia coli, ATCC25922; E. coli ATCC 25922, 18 h
# S. aureus ATCC 25923 [20] = assay: ATP efflux (membrane disruption), S. aureus; format: cell-based, Staphylococcus aureus; details: S. aureus ATCC 25923, single dose 100 µg/mL, relative to squalamine
# Method: (§3) A solution of the compound was prepared in twice-distilled water at a fixed concentration of 100 μg/mL. The different Gram-positive suspensions were prepared in MH II broth and were incubated at 37 °C. Then, 90 µL of each bacterial suspension was added to 10 µL of the compound solution and shaken for 20 s in the incubator at 37 °C. Subsequently, 50 µL of Luceferin–Luciferase reagent (Yelen, Marseille, France) was added to the mixture, and the luminescent signal was quantified with an Infinite M200 microplate reader (Tecan, Männedorf, Switzerland) for 6 readings spaced 30 s apart. The ATP concentration was quantified by internal sample addition. Squalamine (100 µg/mL) was used as the positive control to quantify the maximum level of ATP efflux and water as the negative control. This assay was performed in three independent experiments.
# MRSA = assay: ATP efflux (membrane disruption), MRSA; format: cell-based, methicillin-resistant S. aureus; details: single dose 100 µg/mL, relative to squalamine
# Method: as §3
# P. aeruginosa PAO1 [21] = assay: Nitrocefin hydrolysis assay (outer membrane permeabilization); format: cell-based, Pseudomonas aeruginosa; details: P. aeruginosa PAO1, top dose 128 µg/mL
# Method: Outer membrane permeabilization was measured using nitrocefin as a chromogenic substrate of periplasmic β-lactamase. A total of 10 milliliters of MH broth were inoculated with 0.1 mL of an overnight culture of PAO1 bacteria and grown at 37 °C until the OD600 reached 0.5. The remaining steps were performed at room temperature. The cells were recovered by centrifugation (4000 rpm for 20 min) and washed once in 20 mM potassium phosphate buffer (pH 7.2) containing MgCl2 (1 mM). After a second centrifugation, the pellet was resuspended and adjusted to OD600 of 0.5. Then, 50 µL of the desired compound was added to 100 µL of the cell suspension to obtain a final concentration varying from 3.9 µM to 250 µM. A total of 50 microliters of nitrocefin was then added to obtain a final concentration of 50 µg/mL. Nitrocefin hydrolysis was monitored spectrophotometrically by measuring the increase in absorbance at 490 nm. The assays were performed in 96-well plates using a M200 Pro Tecan (Tecan, Männedorf, Switzerland) spectrophotometer.
# P. aeruginosa PAO1 [22] = assay: Real-time growth curves, P. aeruginosa; format: cell-based, Pseudomonas aeruginosa
# S. aureus ATCC 25923 [23] = assay: Real-time growth curves, S. aureus; format: cell-based, Staphylococcus aureus; details: for Concentration at which bacterial growth resumed after 2 h: S. aureus ATCC 25923, real-time growth
# Method: The solutions of the compound at the concentrations of 2, 4, and 16 µg/mL were tested each in triplicate against S. aureus ATCC 25923. Typically, in a 96-well plate were placed 10 µL of 40, 80, and 320 µg/mL stock solutions of compound, as well as 190 µL of 5 × 10^5 CFU/mL of the selected bacterial suspension in brain heart infusion (BHI) broth. Positive controls containing only 200 µL of 5 × 10^5 CFU/mL of the bacterial suspension in BHI and negative controls containing only 200 µL of BHI broth were added. The plate was incubated at 37 °C in a TECAN Spark Reader (Roche Diagnostic, Meylan, France) and the real-time bacterial growth was followed by OD590 nm measurements every 20 min for 18 h.
# [24] = tested on: K. pneumoniae ATCC 700603; assay: MIC, broth microdilution (CO-ADD), K. pneumoniae; details: top dose 32 µg/mL
# S. aureus ATCC 25923 [25] = assay: MIC, broth dilution, S. aureus; format: cell-based, Staphylococcus aureus
# MRSA ATCC 43300 [26] = assay: MIC, broth microdilution (CO-ADD), MRSA; format: cell-based, methicillin-resistant S. aureus; details: Staphylococcus aureus; MRSA ATCC 43300; top dose 32 µg/mL; read-out: MIC MRSA
# P. aeruginosa ATCC 27853 [27] = assay: MIC, broth dilution, P. aeruginosa; format: cell-based, Pseudomonas aeruginosa; details: Pseudomonas aeruginosa, ATCC27853
smiles,measurement,setting,value
"O=C(NCCCNCCCCNCCCNC(=O)c1c[nH]c2ccc(Br)cc12)c1c[nH]c2ccc(Br)cc12 [Compound 3, α,ω-di-(5-bromoindole-3-carboxamido)spermine]",MIC MRSA,MRSA ATCC 43300 [1],12.4 ^i µM
same,Erythro/Ec: concentration required to restore erythromycin activity (combination MIC),E. coli ATCC 25922 [2],100 µM
same,Dox/Pa: concentration required to restore doxycycline activity (combination MIC),"P. aeruginosa ATCC 27853 [3]; doxycycline at 2 µg/mL (4.5 µM), P. aeruginosa ATCC 27853, ref Cadelis et al. [13]",3.125 µM
same,Dox/Pa fold-change (intrinsic MIC / combination MIC),"P. aeruginosa ATCC 27853 [3]; doxycycline at 2 µg/mL, P. aeruginosa ATCC 27853, ref Cadelis et al. [13]",64 fold
same,MIC Ab,A. baumannii ATCC 19606 [4],>50 ^i µM
same,MIC Ec,E. coli ATCC 25922 [5],200 ^i µM
same,MIC Cn,[6],12.4 ^i µM
same,MIC Kp,[7],>50 ^i µM
same,MIC Sa,S. aureus ATCC 25923 [8],4.8 ^i µM
same,pIC50,[9],< 4.30
same,MIC Pa,P. aeruginosa ATCC 27853 [10]; ref Cadelis et al. [13],200 ^i µM
same,Hemolysis HC10,human red blood cells [11],>50 ^c µM
same,MIC Ca,C. albicans ATCC 90028 [12],49.5 ^i µM
O=C(NCCCNCCCCCCNCCCNC(=O)c1c[nH]c2ccc(Br)cc12)c1c[nH]c2ccc(Br)cc12 [Compound 13b],IC50 at 20 h,[13],> 35 µM
same,Hemolysis HC10,human red blood cells [14],>35 µM
same,MIC,[15],≤ 0.28 µM
same,Erythro/Ec fold-change (intrinsic MIC / combination MIC),E. coli ATCC 25922 [2]; E. coli,1 fold
same,Erythro/Ec: concentration required to restore erythromycin activity (combination MIC),E. coli ATCC 25922 [2],6.92 µM
same,Dox/Pa fold-change (intrinsic MIC / combination MIC),P. aeruginosa ATCC 27853 [16]; P. aeruginosa ATCC 27853,21 fold
same,Dox/Pa: concentration required to restore doxycycline activity (combination MIC),"P. aeruginosa ATCC 27853 [16]; P. aeruginosa ATCC 27853, mean n = 3",3.46 µM
same,MIC,C. albicans ATCC 90028 [17],> 35 µM
same,MIC,A. baumannii ATCC 19606 [18],≤ 0.28 µM
same,MIC,E. coli ATCC 25922 [19],6.92 µM
same,ATP release (membrane disruption),S. aureus ATCC 25923 [20],more potent of the two compounds
same,ATP release (membrane disruption),MRSA,more potent of the two compounds
same,Outer membrane disruption (nitrocefin hydrolysis),P. aeruginosa PAO1 [21],able to disrupt the outer membrane only at the top dose
same,Concentration at which bacterial growth resumed after 4 h,P. aeruginosa PAO1 [22],35.5 μM and 32 μg/mL
same,Concentrations giving complete inhibition in real-time growth curves,"S. aureus ATCC 25923 [23]; S. aureus ATCC 25923, 18 h",32 to 2 μg/mL and 35.5 to 2.2 μM
same,Concentration at which bacterial growth resumed after 2 h,S. aureus ATCC 25923 [23],1 μg/mL and 1.1 μM
same,MIC Kp,[24],>35 µM
same,MIC,"S. aureus ATCC 25923 [25]; S. aureus ATCC 25923, 18 h, read-out: MIC Sa",2.2 µM
same,MIC,"S. aureus ATCC 25923 [25]; Staphylococcus aureus, ATCC25923, S. aureus ATCC 25923, 18 h, read-out: MIC Sa",2.2 µM
same,MIC,"S. aureus ATCC 25923 [25]; Staphylococcus aureus, ATCC25923, read-out: MIC S. aureus (microdilution)",2 µg/mL
same,MIC,MRSA ATCC 43300 [26],≤ 0.28 µM
same,MIC,"P. aeruginosa ATCC 27853 [27]; P. aeruginosa ATCC 27853, 18 h, read-out: MIC Pa",71 µM
same,MIC,P. aeruginosa ATCC 27853 [27]; read-out: MIC P. aeruginosa (microdilution),64 µg/mL
"O=C(Cc1c[nH]c2ccc(Br)cc12)NCCCNCCCCCCCNCCCNC(=O)Cc1c[nH]c2ccc(Br)cc12 [Compound 19, reference compound]",Combined MIC with doxycycline against P. aeruginosa,P. aeruginosa ATCC 27853 [3]; doxycycline potentiation,6.6 µM
same,Fold enhancement with doxycycline against P. aeruginosa,P. aeruginosa ATCC 27853 [3]; doxycycline potentiation,18 fold
same,ATP release (membrane disruption),S. aureus ATCC 25923 [20],noticeably less active than the positive control squalamine
same,ATP release (membrane disruption),MRSA,noticeably less active than the positive control squalamine
same,Outer membrane disruption (nitrocefin hydrolysis),P. aeruginosa PAO1 [21],inactive at all test doses
same,Concentration at which bacterial growth resumed after 4 h,P. aeruginosa PAO1 [22],128 μg/mL and 135.5 μM
same,Concentration at which bacterial growth resumed after 2 h,S. aureus ATCC 25923 [23],8.5 μM and 8 μg/mL
same,MIC P. aeruginosa,P. aeruginosa ATCC 27853 [10],100 μg/mL and 106 μM
